Key:
RXRα = biological target: T1, RXRα (Homo sapiens, UniProt P19793); test: ligand binding assay, RXRα; settings: read-out: RXR Bind Ki α
T1 construct: expressed in transfected cells
T1 sequence (P19793 1-462): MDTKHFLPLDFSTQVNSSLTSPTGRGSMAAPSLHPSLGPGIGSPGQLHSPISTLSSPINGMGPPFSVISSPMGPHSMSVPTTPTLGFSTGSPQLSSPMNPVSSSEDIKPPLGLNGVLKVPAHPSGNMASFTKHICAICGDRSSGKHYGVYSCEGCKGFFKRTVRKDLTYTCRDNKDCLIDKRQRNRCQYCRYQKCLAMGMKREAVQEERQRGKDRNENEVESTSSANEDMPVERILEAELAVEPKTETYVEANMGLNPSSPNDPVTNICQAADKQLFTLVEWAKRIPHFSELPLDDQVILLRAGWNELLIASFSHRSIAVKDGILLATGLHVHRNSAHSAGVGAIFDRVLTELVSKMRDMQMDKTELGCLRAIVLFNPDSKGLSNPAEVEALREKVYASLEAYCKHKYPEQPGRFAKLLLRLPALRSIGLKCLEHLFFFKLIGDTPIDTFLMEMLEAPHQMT
Description: (§1) Specifically, one such assay is a chimeric receptor transactivation assay which tests for agonist-like activity in the R RAPE and RAR7 receptor subtypes, and which is based on work published by Feigner, P. L. and Holm, M (1989) Focus, 112 is described in detail in U.S. Pat. No. 5,455,265. The specification of U.S. Pat. No. 5,455,265 is hereby expressly incorporated by reference. A holoreceptor transactivation assay and a ligand binding assay which measure the antagonist/agonist like activity of the compounds of the invention, or their ability to bind to the several retinoid receptor subtypes, respectively, are described in published PCT Application No. WO WO93/11755 (particularly on pages 30-33 and 37-41) published on Jun. 24, 1993, the specification of which is also incorporated herein by reference. A detailed experimental procedure for holoreceptor transactivations has been described by Heyman et al. Cell 68, 397-406, (1992); Allegretto et al. J. Biol. Chem. 268, 26625-26633, and Mangelsdorf et al. The Retinoids: Biology, Chemistry and Medicine, pp 319-349, Raven Press Ltd., New York, which are expressly incorporated herein by reference. The results obtained in this assay are expressed in EC50 numbers, as they are also in the chimeric receptor transactivation assay. The results of the ligand binding assay are expressed in Ki numbers. (See Cheng et al. Biochemical Pharmacology Vol. 22 pp 3099-3108, expressly incorporated herein by reference.)
(§2) Generally speaking, in the tables disclosing the results of transactivation and binding assays the numbers in parentheses indicate efficacy as a percentage compared to the standard compound, (2E,4E,1′S,2′S)-3-methyl-5-[2′-methyl-2′-(5,5,8,8-tetramethyl-5,6,7,8-tetrahydro-naphthalen-2-yl)cyclopropyl]-penta-2,4-dienoic acid and the other numbers indicate the measured EC50 and K; in nanomolar concentration.

RXRβ [1] = biological target: T2, RXRβ (UniProt P28704); test: ligand binding assay, RXRβ; settings: for Ki: read-out: RXR Bind Ki β
T2 sequence (P28704 1-520): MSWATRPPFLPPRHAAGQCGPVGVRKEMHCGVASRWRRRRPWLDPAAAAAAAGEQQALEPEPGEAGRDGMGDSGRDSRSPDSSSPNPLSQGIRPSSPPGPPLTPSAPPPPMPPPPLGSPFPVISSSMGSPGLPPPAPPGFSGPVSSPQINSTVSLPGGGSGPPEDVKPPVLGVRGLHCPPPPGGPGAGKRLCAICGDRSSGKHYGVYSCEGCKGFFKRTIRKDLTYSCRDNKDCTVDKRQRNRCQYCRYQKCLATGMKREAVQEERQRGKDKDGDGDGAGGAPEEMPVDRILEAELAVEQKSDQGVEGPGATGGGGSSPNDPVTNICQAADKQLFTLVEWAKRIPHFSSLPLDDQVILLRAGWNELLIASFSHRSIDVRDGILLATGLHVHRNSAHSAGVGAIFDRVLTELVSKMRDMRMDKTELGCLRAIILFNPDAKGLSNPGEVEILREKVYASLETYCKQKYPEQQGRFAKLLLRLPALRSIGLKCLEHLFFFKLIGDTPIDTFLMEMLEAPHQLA
Description: as §1, §2

RARβ = biological target: T3, RARβ (Homo sapiens, UniProt P10826); test: ligand binding assay, RARβ; settings: for Ki: read-out: RAR Bind. Ki β
T3 sequence (P10826 1-455): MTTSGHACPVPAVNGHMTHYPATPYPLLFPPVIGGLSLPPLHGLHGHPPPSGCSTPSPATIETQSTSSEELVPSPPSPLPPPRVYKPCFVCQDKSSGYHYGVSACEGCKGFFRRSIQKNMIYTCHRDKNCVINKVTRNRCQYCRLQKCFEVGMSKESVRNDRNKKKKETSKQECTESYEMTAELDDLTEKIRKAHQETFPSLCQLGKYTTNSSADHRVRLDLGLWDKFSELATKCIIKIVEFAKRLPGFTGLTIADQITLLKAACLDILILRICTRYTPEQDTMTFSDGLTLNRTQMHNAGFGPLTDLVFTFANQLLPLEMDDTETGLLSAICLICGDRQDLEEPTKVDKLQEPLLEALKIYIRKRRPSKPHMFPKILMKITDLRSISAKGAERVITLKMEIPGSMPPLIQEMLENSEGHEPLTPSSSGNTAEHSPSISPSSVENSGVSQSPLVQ
Description: as §1, §2

RXRβ [2] = biological target: T2, RXRβ; test: holoreceptor transactivation assay, RXRβ; format: cell-based; settings: for EC50: holoreceptor transactivation, read-out: RXR Trans. EC50 β; for RXR Trans. efficacy (number in parentheses) β: percentage compared to the standard compound
Description: as §1
Efficacy in a transactivation assay is expressed as a percentage of the maximum potency attained by the compound compared to a standard which, in this case, is the compound named (2E,4E,1′S,2′S)-3-methyl-5-[2′-methyl-2′-(5,5,8,8-tetramethyl-5,6,7,8-tetrahydro-naphthalen-2-yl)-cyclopropyl]-penta-2,4-dienoic acid. This standard compound is described in U.S. Pat. No. 6,114,533.
The specification of this application for patent is organized in several sections in accordance with structural Formulas A through F each of which discloses a group of preferred compounds within the scope of the invention. Tables that disclose the activity of certain exemplary compounds of the invention in the above-described RXR receptor transactivation and binding assays are found in the corresponding sections. […] The transactivation data pertaining to the activation of RXR receptors were obtained in the holoreceptor assay.
as §2

SMILES | Ki (RXRα) [µM] | Ki (RXRβ [1]) [µM] | Ki (RARβ) [µM] | EC50 (RXRβ [2]) [µM] | RXR Trans. efficacy (number in parentheses) β (RXRβ [2]) [%] | Kd (RXRβ [1]; Table 9 (Formula F), read-out: RXR β Kd) [µM] | Kd (RARβ; Table 9 (Formula F), read-out: RAR β Kd) [µM]
CCOc1cc2c(cc1\C(C)=C(F)/C=C/C(C)=C/C(=O)O)C(C)=CCC2(C)C | 0.002 | 0.015 | 0.359 | 0.012 | 59 |  | 
CCC1=CC(C)(C)Oc2cc(OC)c(\C(C)=C/C=C/C(C)=C/C(=O)O)cc21 [Compound 42, 7-(4-Ethyl-7-methoxy-2,2-dimethyl-2H-chromen-6-yl)-3-methyl-octa-2E,4E,6Z-trienoic acid] | 0.049 | 0.228 | 9.9 | 0.055 | 98 |  | 
COc1cc2c(cc1\C(C)=C/C=C/C(C)=C/C(=O)O)C(C(C)C)=CC(C)(C)O2 [Compound 43, 7-(4-Isopropyl-7-methoxy-2,2-dimethyl-2H-chromen-6-yl)-3-methyl-octa-2E,4E,6Z-trienoic acid] | 0.006 | 0.078 | 0.378 | 0.016 | 96 |  | 
CCOc1cc2c(cc1\C(C)=C(F)/C=C/C(C)=C/C(=O)O)C(CC)=CC(C)(C)O2 [Compound 123, 7-(7-Ethoxy-4-ethyl-2,2-dimethyl-2H-chromen-6-yl)-6-fluoro-3-methyl-octa-2E,4E,6E-trienoic acid] | 0.833 | > 10 | > 10 |  |  |  | 
CCOc1cc2c(cc1\C(C)=C(F)/C=C/C(C)=C/C(=O)O)C(c1ccccc1)=CC(C)(C)O2 [Compound 127, (2E,4E,6E)-7-(7-Ethoxy-2,2-dimethyl-4-phenyl-2H-chromen-6-yl)-6-fluoro-3-methyl-octa-2,4,6-trienoic acid] | 0.097 | 0.554 | 1.4 |  |  |  | 
CCCOc1cc2c(cc1\C(C)=C(F)/C=C/C(C)=C/C(=O)O)C(c1ccccc1)=CC(C)(C)O2 [Compound 128, (2E,4E,6E)-7-(2,2-Dimethyl-4-phenyl-7-propoxy-2H-chromen-6-yl)-6-fluoro-3-methyl-octa-2,4,6-trienoic acid] | 0.053 | 0.289 | 0.388 |  |  |  | 

Now from value to compound:

Ki (RXRα) [µM] | Ki (RXRβ [1]) [µM] | Ki (RARβ) [µM] | EC50 (RXRβ [2]) [µM] | RXR Trans. efficacy (number in parentheses) β (RXRβ [2]) [%] | Kd (RXRβ [1]; Table 9 (Formula F), read-out: RXR β Kd) [µM] | Kd (RARβ; Table 9 (Formula F), read-out: RAR β Kd) [µM] | SMILES
0.002 | 0.013 |  | 0.004 | 60 |  |  | CCOc1cc2c(cc1\C(C)=C(F)/C=C/C(C)=C/C(=O)O)C(C(C)C)=CCC2(C)C [Compound A-79, (2E,4E,6E)-6-Fluoro-3-(4,4-dimethylethoxy-1-isopropyl-3,4-dihydronaphthalen-7-yl)-3-methyl-2.4,6-octa-trienoic acid]
0.01 | 0.056 | 0.552 |  |  |  |  | CCCOc1cc2c(cc1\C(C)=C(F)/C=C/C(C)=C/C(=O)O)C(C(C)C)=CCC2(C)C [Compound A-80]
0.012 | 0.033 | 0.927 |  |  |  |  | CC(/C=C/C(F)=C(/C)c1cc2c(cc1OCC1CC1)C(C)(C)CC=C2C(C)C)=C\C(=O)O [Compound A-81, (2E,4E,6E)-6-Fluoro-3-(4-dimethyl-6-(cyclopropyl)methoxy-1-isopropyl-3,4-dihydronaphthalen-7-yl)-3-methyl-2,4.6-octa-trienoic acid]
0.013 | 0.101 | 0.62 |  |  |  |  | CCCOc1cc2c(cc1\C(C)=C(F)/C=C/C(C)=C/C(=O)O)C(C(C)(C)C)=CCC2(C)C [Compound A-84, (2E,4E,6E)-6-Fluoro-3-(4,$dimethyl-6-n-propoxy-1-tert-butyl-3,4-dihydronaphthalen-7-yl)-3-methyl-2,4,6-octatrienoic acid]
 |  |  | 0.004 | 58 | 0.023 | 0.112 | CCOc1c(\C(CC)=C(F)/C=C/C(C)=C/C(=O)O)cc2c(c1Br)C(C)(C)CC=C2C(C)CC (centres unmarked) [Compound A-176, (2E,4E,6E)-7-(4-Bromo-8-sec-butyl-3-ethoxy-5,5-methyl-5,6-dihydro-naphthalen-2-yl)-6-fluoro-3-methyl-nona-2,4,6-trienoic acid]

Source: US6887896B1, “7-[(7-Alkoxy)-chrom-3-en-6-yl]-heptatrienoic acid and 7-[(3-alkoxy)-5,6-dihydronaphthalen-2-yl]-heptatrienoic acid derivatives having serum glucose reducing activity” (Allergan, Inc., priority 2003, dated 2005)
